Patent publication US20260315431A1, “NANOMATERIAL ENCAPSULATED BIOFILM INHIBITORS FOR DENTAL CARIES TREATMENT” (THE UAB RESEARCH FOUNDATION, priority 2023, published 2026)
Values after ≈ are worked out from the molar mass of the structure shown. “Also recorded” adds a separate entry of the source.

Key:
[1] = system: S. sanguinis SK36; experiment: Commensal biofilm inhibition, S. sanguinis SK36 (crystal violet, OD562); assay type: cell-based, Streptococcus sanguinis; conditions: 25 μM
Description: The bacterial strains, S. mutans UA159, S. gordonii DL1, and S. sanguinis SK36 were inoculated statically at 37° C. under 5% CO2 in Todd Hewitt Broth (THB) for 24 h. The cultures were then diluted with fresh THB (1:5) and reinoculated until optical density at 470 nm (OD470) reached 1. The optical density was read using BioTek 800TS microplate reader at 470 nm for bacterial growth and 562 nm for biofilm stained with crystal violet. Data was plotted in Graphpad Prism9.
Biofilm inhibition assays. Biofilm inhibition assays were performed in polystyrene microtiter 96 well plates. […] After reading optical density for bacterial growth, the plate was gently washed with water, dried, and stained with crystal violet, and then gently rinsed again with deionized water leaving the stained biofilm at the bottoms of the wells. Biofilms was dissolved in 200 μL of 30% acetic acid and absorbance at 562 nm was used read to determine biofilm biomass. […] Biofilm inhibitory concentration (IC50) of the compounds was determined by serial dilutions.
All bacterial strains (S. mutans UA159, S. gordonii DL1, and S. sanguinis SK36) were inoculated statically at 37° C. under 5% CO2 environment in Todd Hewitt Broth (THB) for 24 h^[61]. […] The optical density was read using BioTek 800 TS absorbance reader at 470 nm for bacterial growth and 562 nm for biofilm stained with crystal violet. […]

[2] = Solubility in water containing 1% DMSO (UV spectroscopy); assay type: physicochemical; conditions: organic solvent or mixture; water containing 1% DMSO
Description: Solubility of MA1-6 and HA2-6 were determined as reported^46 (Table 1).
General considerations. ^1H-NMR and ^13C-NMR spectra were recorded on Bruker Avance Neo 400 and Avance II 700 spectrometers using TMS or appropriate solvent signals as internal standard. The chemical shift values are given in parts per million (ppm) relative to the internal standard used and the coupling constants (J) are given in hertz (Hz). High resolution mass spectra (HRMS) were recorded using Waters AutoSpec-Ultima™ NT magnetic sector mass spectrometer with Electron Impact (EI) Ionization source. The mass analyzer is an electric-magnetic-electric (EBE) sector (a double focusing sector). Anhydrous solvents used for reactions were purchased in Sure-Seal™ bottles from Aldrich chemical company. Other chemical reagents were purchased from Aldrich or Fisher chemical companies and used as received. Reactions were monitored with thin layer chromatography (TLC), which was done on silica gel plates with fluorescent indicator (Silicycle, silica gel, UV254, 25 μm plates). The TLC spots were observed under UV light with the wavelengths 254 nm and 365 nm. The reaction mixtures were purified by column chromatography using Si gel (32-63 μm) from Dynamic Absorbent, Inc. Melting points were determined on a Mel-Temp II melting point apparatus and are uncorrected. All tested compounds have ≥95% purity as determined by HPLC. HPLC traces were obtained using Shimadzu SPD-M20A. Solubility of compounds were determined by UV-spectroscopy method using Agilent Cary 60 UV-Vis spectrophotometer. HPLC analysis of the final compounds were conducted using Kinetex 5 μm C18 100 Å, LC Column 150×4.6 mm, compound=3 mM, 20 μL injection, solvent: mobile phase buffer, Conditions: 60% MeCN/40% H2O/0.1% Formic acid (isocratic), HPLC method 0-10 min, Signals were analyzed using a 254 nm UV detector. A chromatogram of Mobile Phase Buffer (20 μL) was obtained for comparison.

Compound	S. sanguinis biofilm [1]	solubility [2] [µg/mL]
O=C1/C(=C/c2cc(O)c(O)cc2O)Oc2ccccc21 [HA5, 2-[(2′,4′,5′-Trihydroxyphenyl)methylidene]-2,3-dihydro-1-benzofuran-3-one]	did not significantly reduce; also recorded: minimal	120 (≈ 444 µM)
O=C1/C(=C/c2cc(O)c(O)c(O)c2)Oc2ccccc21 [HA6, 2-[(3′,4′,5′-Trihydroxyphenyl)methylidene]-2,3-dihydro-1-benzofuran-3-one]	did not significantly reduce the biofilms	90.8 (≈ 336 µM)
